From patent publication US6566129B1, “Transformed cells useful for the control of pests” (University of Florida Research Foundation, Inc., priority 1999, dated 2003)
Square brackets hold non-standard residues; d marks the D form. Ends that are not written are not given here. Peptide text beside a SMILES is read from it.

Legend:
Type in all cases: in vivo
Aedes aegypti larvae [1] = assay: Effect of TMOF and its analogue peptides on mosquito larvae (feeding, LD50); conditions: newly hatched larvae on autoclaved yeast 1 mg/ml, microtiter plates, 7 days
Excerpt: TMOF can traverse the gut epithelium, enter the hemolymph and bind a gut receptor (Borovsky, D. and F. Mahmood (1995) “Feeding the mosquito Aedes aegypti with TMOF and its analogs; effect on trypsin biosynthesis and egg development,” Regulatory Peptides57:273-281; Borovsky, et al. (1994) “Characterization and localization of mosquito-gut receptors for trypsin modulating oostatic factor using complementary peptide immunochemistry” FASEB J. 8:350-355.). […] To find out if truncated TMOF peptides have an effect on larval growth and development, a series of peptides were synthesized and tested by feeding them to mosquito larvae at concentrations of 0 to 5.0 mg/ml (Table 3). Individual, newly hatched Aedes aegypti larvae were maintained in separate microtiter wells on a diet of autoclaved yeast (1 mg/ml). The diet was supplemented with TMOF peptides (Table 3). An identical number of larvae maintained on yeast served as a control. […] All control groups survived and larval growth and development was normal. Since larvae swallow only a small portion of the yeast particles that adsorbed the peptides, it is assumed that approximately 1 to 20 ng are taken orally at the high concentrations.

Aedes aegypti larvae [2] = assay: Effect of feeding TMOF-R analogues on Aedes aegypti larvae (LC50); conditions: fed in microtiter plates with yeast particles for 5 to 6 days; read-out: LC50 (mM ± S.E.M.)
Method: TMOF analogues (5 to 8 amino acids in length, and polymers of these analogues) in which Arg was added at the C-terminus were evaluated to determine their effect on larval growth and development. A series of analogues were synthesized and tested by feeding them to mosquito larvae at concentrations of (0.5 to 5.0 mg/ml; Table 4). Concentrations of 2.0 to 0.065 mg/ml were used to feed mosquito larvae and calculate the Lethal Dose at 50% mortality (LD50; Table 4) of the TMOF analogues. […] In both cases larval death and trypsin biosynthesis inhibition was noted (Table 4 and 5). […] The advantage of using short analogues connected by Arg is that they can be digested in the gut into short TMOF analogues that can penetrate the midgut much faster than longer analogues.
Individual, newly hatched Aedes aegypti larvae were maintained in separate microtiter wells on a diet of autoclaved yeast (1 mg/ml). The diet was supplemented with TMOF analogues (Table 4). An identical number of larvae were maintained on yeast served as a control. […] All control groups survived and larval growth and development were normal. Larvae that were fed TMOF analogues had increased mortality, particularly when the larvae where fed the concentrations of the analogues higher than 2 mg/ml (Table 4).
Since larvae swallow only a small portion of the yeast particles that adsorbed the analogues it is assumed that approximately I to 20 ng are taken orally at the high concentrations. Using the various concentrations a lethal concentration that caused 50% mortality (LC50) for the mosquito larvae was calculated (Table 4). The results presented in Table 4 clearly indicate that the short TMOF-R analogues are very effective, especially the (DPAR)4 (SEQ ID NO. 61) polymer that is broken into 4 DPARs (SEQ ID NO. 60) in the gut.

trypsin biosynthesis = assay: Effect of injected TMOF-R analogues on trypsin biosynthesis in Heliothis virescens (BApNA); conditions: 2nd instar larvae, 24 hours after injection
Method: Individual second instar larvae of H. virescens were injected with TMOF-R analogues (10 to 0.25 μg per larva) and maintained in separate plastic cups on artificial diet. Twenty-four hours after the injections 3 groups of larvae (3 per group) were assayed for trypsin biosynthesis using BApNA (trypsin specific substrate; Table 5).

Compound	LD50 mM ± S.E.M. (Aedes aegypti larvae [1])	other results
C[C@H](NC(=O)[C@@H]1CCCN1C(=O)[C@H](CC(=O)O)NC(=O)[C@H](N)Cc1ccc(O)cc1)C(=O)N1CCC[C@H]1C(=O)O [(D)YDPAP] (H-[dY]DPAP-OH; N-terminus and C-terminus assumed)	0.56 ± 0.03 mM	
N[C@H](Cc1ccc(O)cc1)C(=O)N[C@@H](CC(=O)O)C(=O)N1CCC[C@H]1C(=O)O [(D)YDP] (H-[dY]-Asp-Pro-OH; N-terminus and C-terminus assumed)	0.51 ± 0.05 mM	
C[C@H](N)C(=O)N[C@@H](C)C(=O)N1CCC[C@H]1C(=O)O [AAP] (H-Ala-Ala-Pro-OH; N-terminus and C-terminus assumed)	1.08 ± 0.07 mM	
C[C@H](N)C(=O)N[C@@H](CC(=O)O)C(=O)N1CCC[C@H]1C(=O)O [ADP] (H-Ala-Asp-Pro-OH; N-terminus and C-terminus assumed)	>6.6 mM	
C[C@H](N)C(=O)N1CCC[C@H]1C(=O)N[C@@H](C)C(=O)O [APA] (H-Ala-Pro-Ala-OH; N-terminus and C-terminus assumed)	1.0 ± 0.07 mM	
C[C@H](NC(=O)[C@H](C)NC(=O)[C@@H](N)CC(=O)O)C(=O)O [DAA] (H-Asp-Ala-Ala-OH; N-terminus and C-terminus assumed)	0.91 ± 0.06 mM	
C[C@H](NC(=O)[C@@H]1CCCN1C(=O)[C@@H](N)CC(=O)O)C(=O)N[C@@H](CCCNC(=N)N)C(=O)O [DPAR] (H-DPAR-OH)		LC50 (Aedes aegypti larvae [2]): 0.46 ± 0.014 mM; Inhibition (% ± S.E.M.) of trypsin biosynthesis (trypsin biosynthesis; 1 μg/injection): 17 ± 2%; Inhibition (% ± S.E.M.) of trypsin biosynthesis (trypsin biosynthesis; 10 μg/injection): 100%
C[C@H](NC(=O)[C@@H]1CCCN1C(=O)[C@@H](N)CC(=O)O)C(=O)O [DPA] (H-Asp-Pro-Ala-OH)	0.4 ± 0.03 mM	
N[C@@H](CC(=O)O)C(=O)N[C@@H](Cc1ccc(O)cc1)C(=O)N1CCC[C@H]1C(=O)O [DYP] (H-Asp-Tyr-Pro-OH; N-terminus and C-terminus assumed)	1.27 ± 0.17 mM	
N[C@@H](CC(=O)O)C(=O)N[C@@H](Cc1ccc(O)cc1)C(=O)O [DY] (H-Asp-Tyr-OH; N-terminus and C-terminus assumed)	3.0 ± 0.8 mM	
C[C@H](NC(=O)[C@@H](N)Cc1ccccc1)C(=O)N1CCC[C@H]1C(=O)O [FAP] (H-Phe-Ala-Pro-OH; N-terminus and C-terminus assumed)	3.8 ± 0.23 mM	
N[C@@H](Cc1ccccc1)C(=O)N[C@@H](CC(=O)O)C(=O)N1CCC[C@H]1C(=O)O [FDP] (H-Phe-Asp-Pro-OH; N-terminus and C-terminus assumed)	1.98 ± 0.6 mM	
N[C@@H](Cc1ccccc1)C(=O)N[C@@H](CO)C(=O)N1CCC[C@H]1C(=O)O [FSP] (H-Phe-Ser-Pro-OH; N-terminus and C-terminus assumed)	2.3 ± 0.13 mM	
C[C@H](NC(=O)[C@H](C)NC(=O)[C@@H]1CCCN1)C(=O)O [PAA] (H-Pro-Ala-Ala-OH; N-terminus and C-terminus assumed)	2.4 ± 0.34 mM	
C[C@H](NC(=O)[C@@H]1CCCN1)C(=O)N1CCC[C@H]1C(=O)O [PAP] (H-Pro-Ala-Pro-OH; N-terminus and C-terminus assumed)	3.17 ± 0.14 mM	
C[C@H](NC(=O)[C@@H]1CCCN1C(=O)[C@@H](CC(=O)O)NC(=O)[C@@H](N)Cc1ccc(O)cc1)C(=O)N1CCC[C@H]1C(=O)O [Y(D)DPAP] (H-Y[dD]PAP-OH; N-terminus and C-terminus assumed)	1.2 ± 0.3 mM	
N[C@@H](Cc1ccc(O)cc1)C(=O)N[C@H](CC(=O)O)C(=O)N1CCC[C@H]1C(=O)O [Y(D)DP] (H-Tyr-[dD]-Pro-OH; N-terminus and C-terminus assumed)	0.28 ± 0.01 mM	
C[C@H](NC(=O)[C@@H](N)Cc1ccc(O)cc1)C(=O)N1CCC[C@H]1C(=O)O [YAP] (H-Tyr-Ala-Pro-OH; N-terminus and C-terminus assumed)	2.3 ± 0.5 mM	
C[C@H](NC(=O)[C@H](CC(=O)O)NC(=O)[C@@H](N)Cc1ccc(O)cc1)C(=O)O [YDA] (H-Tyr-Asp-Ala-OH; N-terminus and C-terminus assumed)	1.6 ± 0.13 mM	
N[C@@H](Cc1ccc(O)cc1)C(=O)N[C@@H](CC(=O)O)C(=O)N[C@@H](Cc1ccccc1)C(=O)O [YDF] (H-Tyr-Asp-Phe-OH; N-terminus and C-terminus assumed)	0.97 ± 0.11 mM	
N[C@@H](Cc1ccc(O)cc1)C(=O)N[C@@H](CC(=O)O)C(=O)NCC(=O)O [YDG] (H-Tyr-Asp-Gly-OH; N-terminus and C-terminus assumed)	0.95 ± 0.11 mM	
N=C(N)NCCC[C@H](NC(=O)[C@@H]1CCCN1C(=O)[C@H](CC(=O)O)NC(=O)[C@@H](N)Cc1ccc(O)cc1)C(=O)O [YDPR] (H-YDPR-OH; N-terminus and C-terminus assumed)		LC50 (Aedes aegypti larvae [2]): 0.24 ± 0.026 mM
N[C@@H](Cc1ccc(O)cc1)C(=O)N[C@@H](CC(=O)O)C(=O)N1CCC[C@H]1C(=O)O [YDP] (H-Tyr-Asp-Pro-OH; N-terminus and C-terminus assumed)	2.3 ± 0.4 mM	
N[C@@H](Cc1ccc(O)cc1)C(=O)N[C@@H](CC(=O)O)C(=O)O [YD] (H-Tyr-Asp-OH; N-terminus and C-terminus assumed)	1.24 ± 0.06 mM	
N[C@@H](Cc1ccc(O)cc1)C(=O)N[C@@H](CO)C(=O)N[C@@H](Cc1ccccc1)C(=O)O [YSF] (H-Tyr-Ser-Phe-OH; N-terminus and C-terminus assumed)	1.08 ± 0.12 mM	

Compound	LD50 mM ± S.E.M. (Aedes aegypti larvae [1])	other results
ADPAP [ADPAP]	2.0 ± 0.36 mM	
DPARDPARDPARDPAR [(DPAR)4]		LC50 (Aedes aegypti larvae [2]): 0.048 ± 0.002 mM; Inhibition (% ± S.E.M.) of trypsin biosynthesis (trypsin biosynthesis; 0.5 μg/injection): 3 ± 0.3%; Inhibition (% ± S.E.M.) of trypsin biosynthesis (trypsin biosynthesis; 1 μg/injection): 35 ± 7%; Inhibition (% ± S.E.M.) of trypsin biosynthesis (trypsin biosynthesis; 10 μg/injection): 58 ± 36%
FDPAP [FDPAP]	0.37 ± 0.15 mM	
MPDYPPPPP [MPDYP5]	>3.0 mM	
YAPAP [YAPAP]	0.54 ± 0.13 mM	
YDAAP [YDAAP]	1.0 ± 0.18 mM	
YDFAP [YDFAP]	0.74 ± 0.13 mM	
YDLAP [YDLAP]	0.6 ± 0.05 mM	
YDPAA [YDPAA]	1.6 ± 0.13 mM	
YDPAF [YDPAF]	0.33 ± 0.2 mM	
YDPAFR [YDPAFR]		LC50 (Aedes aegypti larvae [2]): 0.15 ± 0.023 mM; Inhibition (% ± S.E.M.) of trypsin biosynthesis (trypsin biosynthesis; 10 μg/injection): 0 ± 0%
YDPAL [YDPAL]	0.52 ± 0.03 mM	
YDPAP [YDPAP, reference compound]	1.64 ± 0.03 mM	
YDPAPPPPPP [YDPAP6, reference compound]	0.2 ± 0.02 mM	LC50 (Aedes aegypti larvae [2]): 0.2 ± 0.02 mM; Inhibition (% ± S.E.M.) of trypsin biosynthesis (trypsin biosynthesis; 0.25 μg/injection): 19.5 ± 0.7%; Inhibition (% ± S.E.M.) of trypsin biosynthesis (trypsin biosynthesis; 0.5 μg/injection): 11 ± 1%; Inhibition (% ± S.E.M.) of trypsin biosynthesis (trypsin biosynthesis; 1 μg/injection): 25 ± 2%; Inhibition (% ± S.E.M.) of trypsin biosynthesis (trypsin biosynthesis; 10 μg/injection): 56%
YDPAPPPPPPR [YDPAP6R]		LC50 (Aedes aegypti larvae [2]): > 71.6 mM
YDPAPR [YDPAPR]		LC50 (Aedes aegypti larvae [2]): 0.24 ± 0.02 mM; Inhibition (% ± S.E.M.) of trypsin biosynthesis (trypsin biosynthesis; 0.25 μg/injection): 11 ± 1%; Inhibition (% ± S.E.M.) of trypsin biosynthesis (trypsin biosynthesis; 0.5 μg/injection): 14 ± 1%; Inhibition (% ± S.E.M.) of trypsin biosynthesis (trypsin biosynthesis; 1 μg/injection): 31.5 ± 2%; Inhibition (% ± S.E.M.) of trypsin biosynthesis (trypsin biosynthesis; 10 μg/injection): 53 ± 25%
YDPAR [YDPAR]		LC50 (Aedes aegypti larvae [2]): 0.12 ± 0.07 mM; Inhibition (% ± S.E.M.) of trypsin biosynthesis (trypsin biosynthesis; 0.5 μg/injection): 1 ± 0.07%; Inhibition (% ± S.E.M.) of trypsin biosynthesis (trypsin biosynthesis; 1 μg/injection): 39 ± 2%; Inhibition (% ± S.E.M.) of trypsin biosynthesis (trypsin biosynthesis; 10 μg/injection): 33.5 ± 9%
YDPFP [YDPFP]	1.7 ± 0.4 mM	
YDPGP [YDPGP]	1.1 ± 0.18 mM	
YDPLP [YDPLP]	1.5 ± 0.04 mM	
YEPAP [YEPAP]	0.35 ± 0.02 mM	
YFPAP [YFPAP]	0.64 ± 0.03 mM	
YNPAP [YNPAP]	0.55 ± 0.03 mM	
YSPAP [YSPAP]	1.4 ± 0.03 mM	
